Results taken from patent US10813891B2, “Method of inhibiting chronification of pain” (priority 2011, dated 2020).
Where “and” joins values, the source holds several entries; their conditions need not be identical. Equal entries are not always repeated.

Test system: male albino rats (Sprague Dawley) with paw incision
Experiment: Paw incision model for postoperative pain (electronic von Frey, tactile withdrawal threshold)
Format: in vivo, rat
Description: Post operative, incisional pain is a common form of persistent, acute pain. Brennan et al. (Brennan T J, Vandermeulen E P, and Gebhart G F. Characterization of a rat model of incisional pain. Pain 1996; 64:493-501) developed a post operative model in rats with surgical intervention on the plantar surface of the hind foot for the evaluation of novel analgesic therapeutics. A surgical incision of the rat foot causes a reliable and quantifiable tactile hypersensitivity during the initial post operative period and lasting for several days after surgery. This model may thus be useful for predicting analgesia by investigational agents for post operative pain.
The experiments were carried out in male albino rats (Sprague Dawley) with 170 g-230 g body weight from a commercial breeder (Charles River, Germany). Surgery was performed as previously described. Brennan et al. (Brennan T J, Vandermeulen E P, and Gebhart G F. Characterization of a rat model of incisional pain. Pain 1996; 64:493-501). Briefly, rats were anaesthetised with isoflurane, and a 1 cm longitudinal incision was made, through skin and fascia of the plantar aspect of the foot, starting from the proximal edge of the heel and extending toward the metatarsal toes. The plantaris muscle was elevated and incised longitudinally. The muscle origin and insertion remained intact. After spreading of the muscle and haemostasis with gentle pressure, the skin was closed with two single interrupted sutures. After surgery, the rats were allowed to recover in their home cages and the animals regained consciousness within 2 to 5 minutes. In order to ensure a complete recovery from anaesthesia the baseline value of each individual animal was recorded not until 2 hours after surgery.
The rats were placed in a plastic cage with a wire mesh bottom which allowed full access to the paws. Hind paw withdrawal threshold after mechanical stimulation was tested with electronic von Frey hairs (Somedic Sales AB, Hörby, Sweden). Ten rats were used per experimental group. Animals were placed in a plastic cage with a wire mesh bottom which allowed full access to the paws. Behavioral accommodation was allowed for 30 min. In each case, withdrawal response was measured at an area adjacent to the wound (ipsilateral) and to the same area on the non-injured foot (contralateral). Two hours after surgery, primary hypersensitivity was tested as tactile withdrawal threshold (tactile hyperalgesia) shortly before drug administration and at different time points after drug application. Animals injected with vehicle served as controls. The pretest measurement was made prior to surgery and two thresholds were taken per test and averaged. Ten rats were used per experimental group. Tactile withdrawal threshold was measured pre and after substance administration from day 1 to day 5 post surgery. From day 6 to day 13 post surgery the withdrawal threshold was measured without substance administration (wash out phase). The efficacy was expressed as MPE %=% of maximal possible effect, whereas MPE is defined as 100% reversal of tactile hyperalgesia compared to vehicle group.
Tapentadol at the dose of 14.7 mg/kg intraperitoneal route (i.p.) was adminstered twice daily (BID) (7 a.m./7 p.m.) throughout day 1 to day 5. The first administration was given 20 min before surgery on day 1. From day 6 to day 13 no substance was given (wash out phase) The study scheme is schematically illustrated in FIG. 1.

In the case of `CC[C@@H](c1cccc(O)c1)[C@@H](C)CN(C)C` [Tapentadol, (−)-(1R,2R)-3-(3-dimethylamino-1-ethyl-2-methyl-propyl)-phenol], the “effect on sustained tactile hyperalgesia following surgical lesion” value (14.7 mg/kg i.p. BID day 1-5, washout day 6-13) is reported as “outlasts treatment duration”, the “MPE % (reversal of tactile hyperalgesia)” value (14.7 mg/kg i.p. BID day 1-5, d 2_0.5 h (0.5 h after treatment on day 2 after surgery)) is reported as 38.3±5.48% and 38.3 ± 4.58 % and the “MPE % (reversal of tactile hyperalgesia)” value (14.7 mg/kg i.p. BID, d 3-0.5 h) is reported as 36.8 ± 2.41 %. The “MPE % (reversal of tactile hyperalgesia)” value (14.7 mg/kg i.p. BID, d 4-0.5 h) was 34.5 ± 3.27 %, the “MPE % (reversal of tactile hyperalgesia)” value (14.7 mg/kg i.p. BID, d 5-0.5 h (last day of treatment)) was 22.8 ± 5.29 % and the “MPE % (reversal of tactile hyperalgesia)” value (14.7 mg/kg i.p. BID, d 5-0.5 h (last day of treatment), listed as tapentadol) was 22.8±5.29%. The “MPE % (reversal of tactile hyperalgesia)” value (14.7 mg/kg i.p. BID, pre-d 3 (before administration, day 3)) was −0.6 ± 2.21 n.s. %, the “MPE % (reversal of tactile hyperalgesia)” value (14.7 mg/kg i.p. BID, pre-d 4) was −6.00 ± 1.63 % and the “MPE % (reversal of tactile hyperalgesia)” value (14.7 mg/kg i.p. BID, pre-d 5) was −6.60 ± 1.67 %. The “remaining efficacy as % of the efficacy after substance treatment on day 5” value (after 7 days of washout) was 39%, the “remaining efficacy as % of the efficacy after substance treatment on day 5” value (day 9 (washout)) was 74% and the “MPE % (reversal of tactile hyperalgesia)” value (pre-d 8, washout phase (third day of washout) after 14.7 mg/kg i.p. BID day 1-5) was 2.60 ± 2.51 n.s. %. For the same compound, the “MPE % (reversal of tactile hyperalgesia)” value (pre-d 8, washout phase (third day of washout) after 14.7 mg/kg i.p. BID day 1-5, listed as tapentadol) was 3%, the “MPE % (reversal of tactile hyperalgesia)” value (pre-d 10, washout phase after 14.7 mg/kg i.p. BID day 1-5) was 11.4 ± 3.21 % and the “MPE % (reversal of tactile hyperalgesia)” value (pre-d 11, washout phase after 14.7 mg/kg i.p. BID day 1-5) was 8.90 ± 2.59 %. For the same compound, the “MPE % (reversal of tactile hyperalgesia)” value (pre_d 9, washout phase after 14.7 mg/kg i.p. BID day 1-5) was 17.2 ± 3.43 %, the “MPE % (reversal of tactile hyperalgesia)” value (pre_d 9, washout phase after 14.7 mg/kg i.p. BID day 1-5, listed as tapentadol) was 17% and the “MPE % (reversal of tactile hyperalgesia)” value (pre_d 12, washout phase (7 days of washout) after 14.7 mg/kg i.p. BID day 1-5) was 8.60 ± 3.94 %. For the same compound, the “MPE % (reversal of tactile hyperalgesia)” value (pre_d 12, washout phase (7 days of washout) after 14.7 mg/kg i.p. BID day 1-5, listed as tapentadol) was 9%.
